Experimental data from BindingDB's records for doi:10.7270/Q2CZ35ZF (Southern Research Institute, 2016).

Target: Cystic fibrosis transmembrane conductance regulator (Homo sapiens, UniProt P13569)
Sequence (P13569 whole entry): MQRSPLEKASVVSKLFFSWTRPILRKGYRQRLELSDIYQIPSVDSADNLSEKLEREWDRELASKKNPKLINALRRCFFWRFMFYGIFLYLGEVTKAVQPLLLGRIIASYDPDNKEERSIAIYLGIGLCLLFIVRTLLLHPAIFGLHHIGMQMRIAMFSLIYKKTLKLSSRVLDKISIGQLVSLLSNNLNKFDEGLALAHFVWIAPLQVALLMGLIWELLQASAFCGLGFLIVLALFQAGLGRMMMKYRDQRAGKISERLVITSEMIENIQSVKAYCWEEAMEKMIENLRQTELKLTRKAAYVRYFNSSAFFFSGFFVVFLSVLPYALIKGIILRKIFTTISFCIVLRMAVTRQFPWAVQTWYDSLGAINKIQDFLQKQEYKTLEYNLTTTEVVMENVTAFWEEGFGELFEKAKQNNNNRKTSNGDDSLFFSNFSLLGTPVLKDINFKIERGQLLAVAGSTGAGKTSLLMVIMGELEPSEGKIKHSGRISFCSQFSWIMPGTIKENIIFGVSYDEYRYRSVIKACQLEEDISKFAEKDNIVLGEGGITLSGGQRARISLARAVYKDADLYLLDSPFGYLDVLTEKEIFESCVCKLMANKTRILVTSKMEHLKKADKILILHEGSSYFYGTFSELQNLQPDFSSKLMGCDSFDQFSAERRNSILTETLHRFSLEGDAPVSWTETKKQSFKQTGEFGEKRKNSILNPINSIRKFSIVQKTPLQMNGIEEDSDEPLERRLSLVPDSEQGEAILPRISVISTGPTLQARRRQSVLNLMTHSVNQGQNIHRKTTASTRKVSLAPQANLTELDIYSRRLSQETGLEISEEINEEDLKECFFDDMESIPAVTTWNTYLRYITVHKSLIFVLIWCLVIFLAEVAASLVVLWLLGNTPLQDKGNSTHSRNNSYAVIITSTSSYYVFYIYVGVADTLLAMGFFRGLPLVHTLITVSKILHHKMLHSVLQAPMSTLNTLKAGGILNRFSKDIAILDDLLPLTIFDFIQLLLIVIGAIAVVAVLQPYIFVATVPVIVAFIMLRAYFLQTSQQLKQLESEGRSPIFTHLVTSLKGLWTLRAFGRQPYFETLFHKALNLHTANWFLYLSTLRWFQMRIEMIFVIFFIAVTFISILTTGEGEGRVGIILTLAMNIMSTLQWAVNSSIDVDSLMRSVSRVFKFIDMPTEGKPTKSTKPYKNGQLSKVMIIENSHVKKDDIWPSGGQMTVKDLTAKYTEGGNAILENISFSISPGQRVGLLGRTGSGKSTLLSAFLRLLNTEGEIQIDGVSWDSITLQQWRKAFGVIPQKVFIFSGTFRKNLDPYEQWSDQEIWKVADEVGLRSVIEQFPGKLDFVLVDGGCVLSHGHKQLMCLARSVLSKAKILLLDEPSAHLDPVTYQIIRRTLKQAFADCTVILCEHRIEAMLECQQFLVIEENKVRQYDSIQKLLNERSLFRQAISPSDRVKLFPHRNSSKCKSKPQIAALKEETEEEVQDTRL

CO[C@H]1/C=C/O[C@@]2(C)Oc3c(C)c(O)c4c(c3C2=O)C(=O)/C(=C/NN2CCN(C)CC2)C(=C4O)NC(=O)/C(C)=C\C=C\[C@H](C)[C@H](O)[C@@H](C)[C@@H](O)[C@@H](C)[C@H](OC(C)=O)[C@@H]1C [Rifampicin]
EC50: > 50 µM

O=C(O)c1ccccc1-c1c2cc(Br)c(=O)cc-2oc2[c]([Hg])c(O)c(Br)cc12 [AB00053570_02]
EC50: > 50 µM
IC50: > 50 µM

C[n+]1c2cc(N)ccc2cc2ccc(N)cc21 [AB00053810_11]
EC50: > 50 µM
IC50: 5.71 µM

O=C(O)/C=C/c1ccc(Cn2ccnc2)cc1
EC50: > 50 µM
IC50: 3.43 µM

Nc1ccc2cc3ccc(N)cc3nc2c1 [acridine-3,6-diamine]
EC50: > 50 µM
IC50: 8.88 µM

COc1cc(/C=C(/C#N)c2nc(C)cs2)cc2c1OCO2 [AB00984802-01]
EC50: > 67 µM
IC50: 21 µM

CO[C@H]1/C=C/O[C@@]2(C)Oc3c(C)c(O)c4c(c3C2=O)C(=O)/C(=C/NN2CCN(C)CC2)C(=C4O)NC(=O)/C(C)=C\C=C\C(C)[C@H](O)[C@@H](C)[C@@H](O)[C@@H](C)[C@@H](OC(C)=O)[C@@H]1C (some centres undefined) [AB00052086_02]
EC50: > 50 µM

CN1[C@@H]2CC[C@H]1CC(OC(=O)C(CO)c1ccccc1)C2 (some centres undefined) [AB00694549-11]
EC50: > 50 µM
IC50: 21.4 µM

CCN(CC)CCOc1ccc2c(c1)C(=O)c1cc(OCCN(CC)CC)ccc1-2 [Amixin IC]
EC50: > 50 µM
IC50: 30.2 µM

CC(C)C[C@H](NC(=O)[C@H](Cc1ccccc1)NC(=O)c1cnccn1)B(O)O
EC50: > 50 µM

CC(C)C[C@@H](NC(=O)[C@H](Cc1ccccc1)NC(=O)c1cnccn1)B(O)O [AB01275474-01]
EC50: > 50 µM
IC50: 1.29 µM

CCCc1nc(C)c2c(=O)[nH]c(-c3cc(S(=O)(=O)N4CCN(CC)CC4)ccc3OCC)nn12 [CHEBI:46295]
EC50: > 50 µM
IC50: 0.14 µM

CN(C/C=C/C#CC(C)(C)C)Cc1cccc2ccccc12 [(6,6-Dimethyl-hept-2-en-4-ynyl)-methyl-naphthalen-1-ylmethyl-amine(Terbinafine)]
EC50: > 50 µM
IC50: > 25 µM

N#Cc1ccc(CN2CCc3cc([N+](=O)[O-])ccc32)c(F)c1 [AB01004372-01]
EC50: > 67 µM
IC50: > 67 µM

O=S(=O)(Nc1ccc(-c2cn3cccnc3n2)cc1)c1ccc2c(c1)OCCO2 [AB01003479-01]
EC50: > 49 µM
IC50: > 49 µM

O=C(CCCCCCC(=O)Nc1ccccc1)NO [Zolinza]
EC50: > 50 µM
IC50: 1.55 µM
